Laboratory results reported in patent US12171876B2, “Cationic lipid compound, composition containing same and use thereof” (HANGZHOU TIANLONG PHARMACEUTICAL CO., LTD., priority 2022, dated 2024).

Tests used:
[1] = Particle size and polydispersity index (PDI) of lipid nanoparticles by dynamic light scattering; assay type: physicochemical; conditions: LNP formulation of Example 4, cationic lipid/DSPC/cholesterol/DMG-PEG2000 50:10:38.5:1.5; 25° C., 90° scattering angle
Description: The particle size and polydispersity index (PDI) were determined by dynamic light scattering using Malvern laser particle size analyzer.
10 μL of the liposome solution was weighed, diluted to 1 mL with RNase-free deionized water, and added to the sample pool. Each sample was measured in triplicate. The measurement conditions were: 90° scattering angle, and 25° C.

293T cells = assay: Cell survival rate assay (CCK-8); assay type: cell-based; conditions: 24 hours; for reduction in the cell survival rate compared with YK-009: LNP formulation of Fluc-mRNA
Description: Cell recovery and passage: 293T cells were recovered, cultured in a culture dish, and passaged to the required number of cells.
Seeding plate: The cells in the culture dish were digested and counted. Cells were spread in a 96-well plate at 10,000 cells per well and in a 12-well plate at 150,000 cells per well. Cells were cultured overnight until the cells adhered to the wall.
A LNP formulation containing 1.5 μg of Fluc-mRNA (the carrier component of the LNP formulation was cationic lipid, neutral lipid, structured lipid and polymer-conjugated lipid with a molar ratio of 50:10:38.5:1.5, wherein the cationic lipid was listed in Table 1) was added to the cell culture medium of a 96-well plate, and further cultivated for 24 hours. 10 μL of CCK-8 solution was then added to each well, and the culture plate was incubated in an incubator for 1 hour. The absorbance at 450 nm was measured by a microplate reader.
To compare the cytotoxicity of LNP formulations prepared from cationic lipid YK-009 and compound 25, we prepared LNP formulations with Fluc-mRNA contents of 1.5 μg, 1.125 μg, 0.75 μg and 0.375 μg (the carrier components of LNP formulations were cationic lipid, neutral lipid, structured lipid and polymer-conjugated lipid with a molar ratio of 50:10:38.5:1.5, wherein the cationic lipid was YK-009 or compound 25). The assay method of cell survival rate was the same as above.

female BALB/C mice = assay: Mouse live imaging test of LNP formulations of Fluc-mRNA; assay type: in vivo; conditions: for expression intensity of Fluc-mRNA in mice over time (in words): 3 h to 72 h after intramuscular injection
Description: A LNP formulation containing 10 μg of Fluc-mRNA was intramuscularly injected into female BALB/C mice aged 4-6 weeks and weighing 17-19 g, and at specific time points (3 h, 6 h, 24 h, 48 h and 72 h) after administration, mice were injected intraperitoneally with a fluorescent imaging substrate. The mice moved freely for 5 minutes, and then the average radiation intensity (corresponding to fluorescence expression intensity) of the protein expressed by the mRNA carried by LNP in mice was detected using the IVIS Spectrum small animal live imager.
To compare the protein expression and duration in mice of LNP formulations prepared from cationic lipid YK-009 and compound 25, we prepared LNP formulations with Fluc-mRNA contents of 10 μg, 7.5 μg, 5 μg and 2.5 μg (the carrier components of LNP formulations were cationic lipid, neutral lipid, structured lipid and polymer-conjugated lipid with a molar ratio of 50:10:38.5:1.5, wherein the cationic lipid was YK-009 or compound 25). The mouse live imaging test method was the same as above.

[2] = LNP formulation containing 1.5 μg of Fluc-mRNA
[3] = mRNA transfection, time not stated

Structure (SMILES)	PDI (%) [1]	Particle size (nm) [1]	Cell survival rate (%) (293T cells; [2])	reduction in the cell survival rate compared with YK-009 (293T cells)	expression intensity of Fluc-mRNA in mice over time (in words) (female BALB/C mice)	Cell survival rate (%) (293T cells; Fluc-mRNA content 0.375 μg)	Cell survival rate (%) (293T cells; Fluc-mRNA content 0.75 μg)	Cell survival rate (%) (293T cells; Fluc-mRNA content 1.125 μg)	Cell survival rate (%) (293T cells; Fluc-mRNA content 1.5 μg)	expression in mice, times higher than that for MC3 (female BALB/C mice; [3])	expression in mice, times higher than that for compound 23 (female BALB/C mice; [3])
CCCCCCCCCCOC(=O)CCCN(CCO)CCCCCC(=O)OCC(CCCCCCC)CCCCCCC [YK-010, 2-heptylnonyl 6-((4-(decyloxy)-4-oxobutyl)(2-hydroxyethyl)amino)hexanoate]	19.8%	124.46 nm	77%	23%	–	–	–	–	–	–	–
CCCCCCCCCCCOC(=O)CCCN(CCO)CCCCCC(=O)OCC(CCCCCCCC)CCCCCCCC [YK-001, 2-octyldecyl 6-((4-(undecyloxy)-4-oxobutyl) (2-hydroxyethyl)amino)hexanoate]	10.2%	164.03 nm	85%	–	–	–	–	–	–	–	–
CCCCCCCCCCOC(=O)CCCN(CCO)CCCCCC(=O)OCC(CCCCCC)CCCCCC [YK-011, 2-hexyloctyl 6-((4-(decyloxy)-4-oxobutyl)(2-hydroxyethyl)amino)hexanoate]	21.2%	173.16 nm	98%	–	–	–	–	–	–	–	–
CCCCCCCCCOC(=O)CCCCCCCN(CCO)CCCCCC(=O)OC(CCCCCCCC)CCCCCCCC [Compound 27, nonyl 8-((2-hydroxyethyl)(6-((9-heptadecyl)oxy)-6-oxohexyl)amino)octanoate, reference compound]	13.6%	178.85 nm	84%	16%	decreased rapidly between 6 h and 48 h	–	–	–	–	–	–
CCCCCCCCCCCOC(=O)CCCCCN(CCO)CCCCCCCC(=O)OC(CCCCCCCC)CCCCCCCC [Compound 25, reference compound]	23.1%	117.10 nm	–	–	decreased rapidly at 6˜48 h	99%	97%	95%	91%	–	–
CCCCCCCCCCOC(=O)CCCCN(CCO)CCCCCC(=O)OCC(CCCCCCCC)CCCCCCCC [YK-002, 2-octyldecyl 6-((5-(decyloxy)-5-oxopentyl)(2-hydroxyethyl)amino)hexanoate]	27.7%	156.70 nm	89%	11%	–	–	–	–	–	–	–
CCCCCCCCCCOC(=O)CCCCCN(CCO)CCCCCC(=O)OCC(CCCCCCCC)CCCCCCCC [YK-003, 2-octyldecyl 6-((6-(decyloxy)-6-oxohexyl)(2-hydroxyethyl)amino)hexanoate]	21.3%	119.91 nm	84%	–	highest expression intensity	–	–	–	–	more than 18 times	> 8 times
